We go through four compounds from US20130252903A1, “COMPOSITIONS FOR REDUCING OXIDATIVE STRESS AND USES THEREOF” (Universitaetsklinikum Muenster, priority 2007, published 2013).

One assay deals with human dermal fibroblasts. The assay can be described thus: UVA-induced intracellular amplification of ROS (dihydrorhodamine 123, flow cytometry). Format: cell-based. The note with it: for effect on UVA-induced intracellular amplification of ROS compared with vitamin C (ascorbate): peptide 10^-8M vs vitamin C 10^-2M, FIG. 2; for effect on UVA-induced intracellular amplification of ROS ("oxidative stress"): peptide 10^-8 M, 24 h pre-incubation, UVA 10 J/cm^2, human dermal fibroblasts, FIG. 1, p<0.001. On the procedure: The modulating effect of the tripeptides Lys-Pro-Val (KPV), Lys-D-Pro-Thr (KPT) and Thyrotropin Releasing Hormones (TRH, Protirelin, Thyoliberin, pGlu-His-Pro) was examined on human dermal fibroblasts that were seeded into 3.5 cm^2 tissue culture dishes in a density of 150,000 per dish in […] medium. Two days after seeding the cells, the medium supplemented with 10% foetal calf serum, 1% L-glutamine and 1% penicillin/streptomycin was exchanged with serum-free RPMI medium and pre-incubated for 24 hours with KPV, […] Subsequently, the cells were exposed to a physiological dose of UVA radiation (10 J/cm^2). Immediately after radiation, the cells were incubated with 5 μM dihydrorhodamine 123 plus 5 mM glucose in phosphate buffer (PBS) for 30 minutes. Subsequently, the cells were trypsinized, resuspended in PBS with 5 mM glucose and analyzed by means of flow cytometry (FACS, FACSCalibur with 488 nm argon laser). The above dihydrorhodamine probe is oxidized in the presence of intracellular ROS into green fluorescent […] and, thus, can be measured fluorometrically. A total of 10×10^3 cells per probe were analyzed and evaluated using CELL-QUEST software. The median of the FL-1 channel was used as parameter for the intracellular ROS amount, since it represents the maximum number of cells with the highest fluorescence. Duplicate and triplicate analyses were carried out and all assays were reproduced three times in independent experiments.
(In general: In flow cytometry, cells or beads pass a laser one at a time.)

A further assay concerns B16.F1 melanoma cells. The assay can be described thus: Extracellular melanin accumulation (in situ melanin assay, optical density 405 nm). The class given is cell-based, mouse. As to conditions: 72 hrs; for melanotropic effect (extracellular melanin accumulation): peptides at 10^-6, 10^-8 and 10^-10 M, FIG. 3. The text has this: It is also preferred that the compounds of the invention have no or merely a negligible melanotropic effect. “Melanotropic effect” means that the compound induces the extracellular melanin accumulation in a cell assay in accordance with the method described in the appended example 2 and/or in accordance with the method described in Siegrist and Eberle (Anal. Biochem. 1986; 159; 191-197), title “In situ melanin assay for MSH using mouse B16 melanoma cells in culture”. “No or negligible” means that the mean melanin accumulation which is induced by the compounds of the invention exceeds the mean melanin accumulation which is induced by at least one of the two compounds as exemplified in Example 2 by not more than about 40%, 30%, 20%, 15%, 10%, 5%, 2.5%, 2% or 1%, preferably under conditions which equate to or are identical with those set out in Example 2. The skilled person is able to justify which assay conditions/assays equate with the assay/conditions exemplified in the appended examples. The melanin accumulation evaluated in Example 2 is depicted in FIG. 3. The effect of the compounds of the invention on extracellular melanin accumulation is thus determinable by the methods disclosed herein.
To exclude a potential melanotropic effect of KPT and KPV, 2500 B16.F1 melanoma cells were seeded out on 96-well tissue culture plates in quintuplicate at a density of 2500 cells/well in regular culture medium. On the next day routine medium was changed to medium containing the above peptides at 10^−6, 10^−8 and 10^−10 M vs. medium containing the superpotent MSH analogue NDP-α-MSH (10^−8 M). The latter served as positive control while cells without any other stimulus served as negative control. Cells were then cultured for 72 hrs followed by photometric measurement of the optical density (wavelength 405 nm) of each well. This procedure measures the amount of extracellular melanin produced by the cells according to the well-established and described methodology by Siegrist & Eberle, Anal. Biochem. 1986; 159: 191-197.

Square brackets hold non-standard residues; d marks the D form. Ends that are not written are not given here.

For `NC(=O)[C@@H]1CCCN1C(=O)[C@H](Cc1c[nH]cn1)NC(=O)[C@@H]1CCC(=O)N1` [TRH, L-Pyroglutamyl-L-histidyl-L-prolinamid], in the assay on human dermal fibroblasts, the “antioxidative protective effects in human dermal fibroblasts (summary statement)” value (“antioxidative protective effects” for short) is reported as “show antioxidative protective effects”, the “effect on UVA-induced intracellular amplification of ROS compared with vitamin C (ascorbate)” value is listed as “comparable with that of vitamin C” and the “effect on UVA-induced intracellular amplification of ROS ("oxidative stress")” value (“effect … ("oxidative stress")” for short) is on record as “suppressed UVA-induced intracellular amplification of ROS”.
Consider Lys-Pro-Val [KPV], for which, in the assay on human dermal fibroblasts, the “antioxidative protective effects” value was “show antioxidative protective effects” and the “effect … ("oxidative stress")” value is given as “suppressed UVA-induced intracellular amplification of ROS”. Besides, in the assay on B16.F1 melanoma cells, the “melanotropic effect (extracellular melanin accumulation)” value is given as “did not have any melanotropic effect”.
In the case of Lys-[dP]-Thr [KPT], in the assay on human dermal fibroblasts, the “antioxidative protective effects” value is “show antioxidative protective effects”, the “effect on UVA-induced intracellular amplification of ROS compared with vitamin C (ascorbate)” value is on record as “comparable with that of vitamin C” and the “effect … ("oxidative stress")” value was “suppressed UVA-induced intracellular amplification of ROS”. Further, in the assay on B16.F1 melanoma cells, the “melanotropic effect (extracellular melanin accumulation)” value is reported as “did not have any melanotropic effect”.
With NDP-α-MSH [reference compound], the “melanotropic effect (extracellular melanin accumulation), positive control” value with B16.F1 melanoma cells (10^-8 M) is “p<0.001 vs. control”.
